Where “and” joins values, the source holds several entries; their conditions need not be identical. Equal values may be shown once.
Assay: Determination of biodistribution of radiolabeled compounds in rats after caudal vein administration
Format: in vivo, SD strain rats
Conditions: for Biodistribution, Blood / Biodistribution, Femur and Tibia / Biodistribution, Urine / Biodistribution, Kidney / Biodistribution, Liver: SD-rats female, n = 3, caudal vein
Method: SD strain rats (female, age in 8-9 weeks, n=3) were used with free access to water and food ad libitum, and anesthetized with Ravonal, (a trade name of thiopental sodium, manufactured by Tanabe Seiyaku Co., Ltd.), then the test sample solution was administered to the caudal vein. The test rats were killed by bleeding during the blood samples were taken from the abdominal aorta at each times of sampling after the administration. The organs of interest were excised. After measured the weights of these samples, the radioactivities were determined, and biodistributions were calculated. The results of determination of biodistribution relating to the labeled compounds obtained in Examples 1, 2 and 4 and the labeled compounds of methanediphosphonic acid (MDP) used as reference examples are shown in Tables 3 to 7. Determination results are indicated as %ID/g, and determination results of urine are indicated as %ID.

[1] = 15 Minutes after administration
[2] = 120 Minutes after administration

| SMILES | Biodistribution, Blood [1] | Biodistribution, Femur and Tibia [1] | Biodistribution, Urine [1] | Biodistribution, Femur and Tibia [2] | Biodistribution, Urine [2] | Biodistribution, Kidney [1] [% ID/g] | Biodistribution, Liver [1] [% ID/g] | Biodistribution, Blood [2] [% ID/g] | Biodistribution, Kidney [2] [% ID/g] | Biodistribution, Liver [2] [% ID/g] | change of accumulation level to the bone (in words) (SD-rats, from 15 minutes to 120 minutes after the administration) | accumulation to the bone (in words) (SD-rats, summary of Tables 3-8) | blood clearance (in words) (SD-rats, summary of Tables 3-8) | urinary excretion (in words) (SD-rats, summary of Tables 3-8) |
| --- | --- | --- | --- | --- | --- | --- | --- | --- | --- | --- | --- | --- | --- | --- |
| O=C(O)CN(CCN(CC(=O)O)CC(=O)O)CCN(CC(=O)O)CC(=O)NCC(P(=O)(O)O)P(=O)(O)O [3,6-bis(carboxymethyl)-9-(((2,2-diphosphonoethyl)carbamoyl)m] [3,6-bis(carboxymethyl)-9-(((2,2-diphosphonoethyl)carbamoyl)methyl)-3,6,9-triazaundecanedicarboxylic acid] | 0.519 ± 0.025 % ID/g and 0.621 ± 0.239 % ID/g and 0.463 ± 0.056 % ID/g | 2.777 ± 0.311 % ID/g and 2.417 ± 0.495 % ID/g and 2.643 ± 0.182 % ID/g | 26.04 ± 9.29 % ID and 28.64 ± 5.55 % ID and 37.996 ± 5.927 % ID | 2.739 ± 0.385 % ID/g and 3.089 ± 0.340 % ID/g and 2.922 ± 0.187 % ID/g | 40.31 ± 9.02 % ID and 54.91 ± 1.96 % ID and 54.927 ± 4.073 % ID |  |  |  |  |  |  |  |  |  |
| O=C(O)CNC(=O)CC(P(=O)(O)O)P(=O)(O)O (99mTc complex, metal not drawn) [N-(3,3-diphosphonopropionyl)glycine] | 0.599 ± 0.103 % ID/g | 3.014 ± 0.377 % ID/g | 29.69 ± 0.14 % ID | 3.552 ± 0.327 % ID/g | 48.15 ± 1.50 % ID | 3.225 ± 0.543 | 0.159 ± 0.009 | 0.089 ± 0.037 | 0.762 ± 0.279 | 0.068 ± 0.003 |  |  |  |  |
| O=C(NCC(P(=O)(O)O)P(=O)(O)O)c1ccccc1I | 0.717 ± 0.159 % ID/g | 3.423 ± 0.302 % ID/g | 19.55 ± 0.72 % ID | 3.714 ± 0.474 % ID/g | 41.54 ± 4.19 % ID | 2.751 ± 0.951 | 0.495 ± 0.078 | 0.042 ± 0.006 | 1.070 ± 0.539 | 0.380 ± 0.037 | did not significantly vary | accumulated to the bone quickly | relatively rapid | rapidly excreted into urine |

Source: patent US6607710B1, “Bisphosphonic acid derivative and compound thereof labeled with radioactive nuclide” (Nihon Medi-Physics Co., Ltd., priority 1999, dated 2003)
